In one experiment the target is human orexin-2 receptor (Homo sapiens (Human), UniProt O43614). Put plainly: Intracellular calcium measurement (FLIPR), CHO cells expressing human orexin-2 receptor, 3 nM orexin-A. The experiment is classed as cell-based. Conditions: CHO cells expressing human orexin-2 receptor, FLIPR, 3 nM orexin-A; geometric mean if determined several times; read-out: IC50 OX2. In outline:
(§1)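 HBSS buffer with 0.1% BSA, NaHCO3 and 20 mM HEPES carries both compounds and agonist. Dye: fluo-4 AM (3 μM) with 5 mM probenecid. Compound exposure 120 min; peak signal scored against uninhibited orexin-A response.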

The target in a further experiment is orexin-1 (Homo sapiens (Human), UniProt O43613). Put plainly: Intracellular calcium measurement (FLIPR), CHO cells expressing human orexin-1 receptor, 3 nM orexin-A. Type of experiment: cell-based. The settings on record: CHO cells expressing human orexin-1 receptor, FLIPR, 3 nM orexin-A; geometric mean if determined several times; read-out: IC50 OX1. In outline:
as §1

pIC50: −log10 of the molar value.

human orexin-2 receptor, sequence (O43614 whole entry): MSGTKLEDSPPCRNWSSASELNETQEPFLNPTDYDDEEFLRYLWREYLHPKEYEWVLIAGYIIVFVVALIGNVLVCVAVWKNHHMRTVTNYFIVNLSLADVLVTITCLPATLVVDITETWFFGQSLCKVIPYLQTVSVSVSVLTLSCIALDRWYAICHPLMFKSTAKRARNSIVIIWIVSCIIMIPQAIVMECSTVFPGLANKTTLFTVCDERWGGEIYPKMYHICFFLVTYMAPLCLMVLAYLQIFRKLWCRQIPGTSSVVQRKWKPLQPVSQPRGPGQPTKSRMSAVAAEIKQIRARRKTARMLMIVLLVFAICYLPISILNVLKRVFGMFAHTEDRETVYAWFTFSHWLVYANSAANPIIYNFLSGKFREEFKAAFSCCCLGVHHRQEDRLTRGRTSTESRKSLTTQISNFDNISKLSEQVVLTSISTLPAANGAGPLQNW
orexin-1, sequence (O43613 whole entry): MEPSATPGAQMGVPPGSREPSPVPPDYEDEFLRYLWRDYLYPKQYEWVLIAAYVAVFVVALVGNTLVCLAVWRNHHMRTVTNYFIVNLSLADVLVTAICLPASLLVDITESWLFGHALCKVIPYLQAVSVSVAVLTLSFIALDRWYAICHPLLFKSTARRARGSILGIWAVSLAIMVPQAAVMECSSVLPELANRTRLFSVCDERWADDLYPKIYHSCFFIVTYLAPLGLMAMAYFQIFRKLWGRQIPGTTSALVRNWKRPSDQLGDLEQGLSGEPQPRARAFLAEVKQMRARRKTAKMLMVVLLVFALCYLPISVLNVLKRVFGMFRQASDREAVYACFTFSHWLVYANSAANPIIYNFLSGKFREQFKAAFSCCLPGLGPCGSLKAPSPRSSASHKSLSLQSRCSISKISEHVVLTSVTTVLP

As to `CCc1ccccc1-c1nc([C@@H]2CCCN2C(=O)c2cc(C)c(C)cc2-n2nccn2)no1` [compound 401, (4,5-Dimethyl-2-[1,2,3]triazol-2-yl-phenyl)-{(S)-2-[5-(2-ethyl-phenyl)-[1,2,4]oxadiazol-3-yl]-pyrrolidin-1-yl}-methanone], the pIC50 at human orexin-2 receptor was 8.52; at orexin-1, 8.15.
On to `COc1ncccc1-c1cc([C@@H]2CCCN2C(=O)c2cc(C)ccc2-n2nccn2)on1` [compound 426, {(S)-2-[3-(2-Methoxy-pyridin-3-yl)-isoxazol-5-yl]-pyrrolidin-1-yl}-(5-methyl-2-[1,2,3]triazol-2-yl-phenyl)-methanone], for which the values for the negative-log IC50 (pIC50) on human orexin-2 receptor and on orexin-1 were 7.52 and 6.38, respectively.
Regarding `COc1ccccc1-c1noc([C@@H]2CCCN2C(=O)c2cc(C)c(C)cc2-n2nccn2)n1` [compound 230, (4,5-Dimethyl-2-[1,2,3]triazol-2-yl-phenyl)-{(S)-2-[3-(2-methoxy-phenyl)-[1,2,4]oxadiazol-5-yl]-pyrrolidin-1-yl}-methanone], the values for the pIC50 on human orexin-2 receptor and at orexin-1 were 7.82 and 7.64, respectively.
For `CCOc1ncccc1-c1noc([C@@H]2CCCN2C(=O)c2cc(C)ccc2-c2ccccn2)n1` [compound 217, {(S)-2-[3-(2-Ethoxy-pyridin-3-yl)-[1,2,4]oxadiazol-5-yl]-pyrrolidin-1-yl}-(5-methyl-2-pyridin-2-yl-phenyl)-methanone], in that order: 7.85 and 7.40.
As to `Cc1cc(C(=O)N2CCC[C@H]2c2nc(-c3cccc(F)c3C)no2)c(-n2nccn2)cc1C` [compound 247, (4,5-Dimethyl-2-[1,2,3]triazol-2-yl-phenyl)-{(S)-2-[3-(3-fluoro-2-methyl-phenyl)-[1,2,4]oxadiazol-5-yl]-pyrrolidin-1-yl}-methanone], the pIC50 on human orexin-2 receptor was 8.52; on orexin-1 it was 7.77.
Take `Cc1ccc(-n2nccn2)c(C(=O)N2CCC[C@H]2c2ncc(-c3ccccc3OC(F)(F)F)[nH]2)c1` [compound 529, (5-Methyl-2-[1,2,3]triazol-2-yl-phenyl)-{(S)-2-[5-(2-trifluoromethoxy-phenyl)-1H-imidazol-2-yl]-pyrrolidin-1-yl}-methanone]: the pIC50 on human orexin-2 receptor is 8.70; at orexin-1, 8.00.
For the compound `O=C(c1cccs1)N1CCC[C@H]1c1nc(-c2cccc(Cl)c2)no1` [Ref 2], the pIC50 at human orexin-2 receptor was 5.14; on orexin-1, 5.37.
With `Cc1ccc(C(=O)N2CCC[C@H]2c2nc(-c3ccccc3OC(F)F)no2)c(-n2nccn2)c1` [compound 187, {(S)-2-[3-(2-Difluoromethoxy-phenyl)-[1,2,4]oxadiazol-5-yl]-pyrrolidin-1-yl}-(4-methyl-2-[1,2,3]triazol-2-yl-phenyl)-methanone], the pIC50 is 7.51 at human orexin-2 receptor and 7.10 on orexin-1.
Take `COc1cc(C(=O)N2CCC[C@H]2c2cc(-c3ccccc3OC(F)(F)F)on2)c(-n2nccn2)cc1C` [compound 436, (5-Methoxy-4-methyl-2-[1,2,3]triazol-2-yl-phenyl)-{(S)-2-[5-(2-trifluoromethoxy-phenyl)-isoxazol-3-yl]-pyrrolidin-1-yl}-methanone]: the pIC50 was 7.89 on human orexin-2 receptor and 7.31 at orexin-1.
Take `COc1cc(C(=O)N2CCC[C@H]2c2nc(-c3cccc(Cl)c3C)no2)c(-n2nccn2)cc1Cl` [compound 280]: the pIC50 at human orexin-2 receptor is 8.40; on orexin-1 it was 7.27.
With `Cc1ccc(-n2nccn2)c(C(=O)N2CCC[C@H]2c2nc(-c3ccccc3)no2)c1` [Example 1, (5-Methyl-2-[1,2,3]triazol-2-yl-phenyl)-[(S)-2-(3-phenyl-[1,2,4]oxadiazol-5-yl)-pyrrolidin-1-yl]-methanone], the pIC50 at human orexin-2 receptor is 7.40; on orexin-1 it was 6.43.
As to `COc1cc(C(=O)N2CCC[C@H]2c2nnc(-c3cccc(Cl)c3OC)[nH]2)c(-n2nccn2)cc1Cl` [compound 491, {(S)-2-[5-(3-Chloro-2-methoxy-phenyl)-4H-[1,2,4]triazol-3-yl]-pyrrolidin-1-yl}-(4-chloro-5-methoxy-2-[1,2,3]triazol-2-yl-phenyl)-methanone], the pIC50 on human orexin-2 receptor is 9.00; on orexin-1, 7.48.

Source of the values: patent US9493446B2, “Orexin receptor antagonists which are [ortho bi-(hetero-)aryl]-[2-(meta bi-(hetero-)aryl)-pyrrolidin-1-yl]-methanone derivatives” (Actelion Pharmaceuticals Ltd, priority 2012, dated 2016).
